Source: ChEMBL document CHEMBL5726922, “Chemokine CXCR1 and CXCR2 receptor antagonist compounds, and use thereof in the treatment of chemokine-mediated pathologies” (2019)
pIC50: −log10 of the molar value.

Key:
[1] = target: T1, C-X-C chemokine receptor type 1 (Homo sapiens, UniProt P25024); experiment: (§1) J. Immunol. 170: 2904-2911).To evaluate the direct interaction of the CXCR2 or CXCR1 receptor with β-arrestin 2, a test of β-arrestin 2 recruitment for CXCR2 or CXCR1 based on complementation of the β-galactosidase enzyme (Olson K. R., Eglen R. M., Beta-galactosidase complementation: a cell-based luminescent assay platform for drug discovery. Assay Drug Dev. Technol. 2007 February; 5(1); 137-44), as established by DiscoveRx Corporation was used. Stimulation of these two cell lines with CXCL8 (10 nM) induces the recruitment of β-arrestin 2, as indicated by a significant increase in the induction factor. All the CXCR2 antagonists are tested in a dose-dependent manner and the concentration corresponding to 50% inhibition of the response is determined (IC50=concentration of half-inhibition).β-Arrestin Recruitment Test: “PathHunter HEK293-CXCR2” or “U2OS hCXCR1 β-arrestin” cells (DiscoveRx Corporation) were seeded overnight at 10 000 cells/well (384-well format) in 20 μl of Opti MEM I medium. Preincubation with the antagonist or the vehicle for 30 minutes at 37° C. and 5% CO2 was followed by 60 minutes of stimulation with CXCL8 at 37° C. and 5% CO2. The cells were then placed at room temperature for 30 minutes. The PathHunter detection reagent (DiscoveRx Corporation) was added. […]
T1 sequence (P25024 whole entry): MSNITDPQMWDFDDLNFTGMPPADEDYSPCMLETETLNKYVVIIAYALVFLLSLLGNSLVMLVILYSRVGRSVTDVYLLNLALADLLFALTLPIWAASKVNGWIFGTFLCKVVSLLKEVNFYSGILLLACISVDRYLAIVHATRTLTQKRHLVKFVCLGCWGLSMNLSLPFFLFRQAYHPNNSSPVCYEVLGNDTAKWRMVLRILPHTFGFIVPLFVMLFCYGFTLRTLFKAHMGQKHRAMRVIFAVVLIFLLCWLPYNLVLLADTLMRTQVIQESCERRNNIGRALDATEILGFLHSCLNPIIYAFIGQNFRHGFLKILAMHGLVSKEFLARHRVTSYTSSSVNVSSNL

[2] = target: T2, C-X-C chemokine receptor type 2 (Homo sapiens, UniProt P25025); experiment: as §1
T2 sequence (P25025 whole entry): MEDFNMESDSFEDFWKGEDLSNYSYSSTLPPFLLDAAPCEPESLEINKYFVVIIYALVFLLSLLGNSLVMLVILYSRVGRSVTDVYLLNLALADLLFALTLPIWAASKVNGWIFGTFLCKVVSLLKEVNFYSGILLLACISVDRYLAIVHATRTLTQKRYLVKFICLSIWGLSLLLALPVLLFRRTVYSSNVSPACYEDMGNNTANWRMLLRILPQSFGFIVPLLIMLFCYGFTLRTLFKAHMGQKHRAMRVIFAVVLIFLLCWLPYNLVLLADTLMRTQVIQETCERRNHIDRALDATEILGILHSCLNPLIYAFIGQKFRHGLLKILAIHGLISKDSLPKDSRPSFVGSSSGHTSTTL

pIC50 [1]: < 6.70
pIC50 [2]: < 7.70
SMILES: CC[C@@H](Nc1c(Nc2ccc(Cl)c(S(C)(=O)=NCCN(C)C)c2O)c(=O)c1=O)c1ccc(C)o1 (some centres not stated)
